From patent US20190355440A1, “FLOW CYTOMETRY DATA […] ANTIMICROBIAL AGENT S[…]” (priority 2016, published 2019)

Test system: Enterobacteriaceae strains
Experiment: FCM-AST: flow cytometry fluorescence distribution (DiBAC4(3) membrane depolarization marker) of antibiotic-treated strains
Assay type: cell-based
Method: In a next step 22, liquid samples with different concentrations {C1, . . . , Cm} of the antibiotic are prepared for each of the selected strains Si, where C1=0 (no antibiotic) and m>2 is the number of non-null concentrations of antibiotic. Said concentrations are stored in the computer unit 14. […] After 2 h growth at 35° C. with shaking at 180 rpm, the resulting exponential phase bacterial culture is normalized at 0.5 McF and used to inoculate wells of a microtiterplate supplemented with antibiotics at the different concentrations {C1, . . . , Cm}. After 1 h of incubation at 35° C., a membrane depolarization fluorescent marker, for example (Bis-(1,3-Dibutylbarbituric Acid)Trimethine Oxonol), also known as “DiBAC4(3)”, is added to the wells at a final concentration of 0.5 μg/ml. An additional 15 min incubation with the marker is at 35° C. is then carried out. The concentrations {C1, . . . , Cm} are chosen such that the range [BPS, BPR] is included or equal to the range [C2, Cm] of non-null concentrations.
In the step 24, a FCM acquisition is performed for each sample by means of the flow-cytometer 12 and the corresponding FSC, SSC and fluorescence distributions stored in the computer unit 14. For each strain Si, and for each concentration Cj, a FSC distribution “FSCi,j”, a SSC distribution “SSCi,j” and a fluorescence distribution “FIi,j” are thus stored in the computer unit 14, e.g. in the form of digital vectors.
The experiment was performed as described in the following lines: • A panel of 107 Enterobacteriaceae strains (FIG. 6: Distribution of the panel of strains according to their MICs for Gentamicin) were treated with 0, 2, 4 and 8 mg/L of Gentamicin following the protocol described in FIG. 3 and analyzed by FCM.
In this experiment, we have made an evaluation of wide range of prediction models for Ceftazidime: • 128 Enterobacteriaceae strains (FIG. 9: Distribution of the panel of strains according to their MICs for Ceftazidime) were treated or not with four different concentrations of Ceftazidime (1, 2, 4 and 8 mg/L) using the FCM protocol described in FIG. 3; • FCM data were used to generate feature vectors as described above; • For each strategy (BPS, GS and GMS), 7 type of prediction models were built based on the feature vectors generated (FIG. 10: Number of predictions models generated. “FL1” means fluorescence); • The performance of all models were evaluated following cross validation as described above.

Question: For `CC(C)(O/N=C(\C(=O)N[C@@H]1C(=O)N2C(C(=O)[O-])=C(C[n+]3ccccc3)CS[C@H]12)c1csc(N)n1)C(=O)O` [Ceftazidime], which “fluorescence distribution of treated strains (inferred from poor performance of quantile models)” value (128 Enterobacteriaceae strains, 1, 2, 4 and 8 mg/L Ceftazidime) is on record?
Answer: the majority of strains treated with Ceftazidime exhibit homogeneous distributions of fluorescence

Question: Which “fluorescence distribution profile vs untreated sample” value (intermediate phenotype strains, 2 mg/L Gentamicin) does the source give for Gentamicin here?
Answer: more strains showed no shift of fluorescence (profile A)

Question: And the “fluorescence distribution profile vs untreated sample” value (intermediate phenotype strains, 4 and 8 mg/L Gentamicin)?
Answer: equal number of strains exhibited either no shift (profile A) or heterogeneous fluorescence distribution (profile B)

Question: And the “resistant strains that did not show any shift in fluorescence (profile A)” value (resistant strains, all concentrations tested (2, 4, 8 mg/L))?
Answer: 36 out of 37

Question: And the “fluorescence distribution profile vs untreated sample” value (susceptible phenotype strains, panel of 107 strains, 2 mg/L Gentamicin)?
Answer: equal number of strains exhibited either no shift (profile A) or heterogeneous fluorescence distributions (profile B)

Question: And the “fluorescence distribution profile vs untreated sample” value (susceptible phenotype strains, panel of 107 strains, 4 and 8 mg/L Gentamicin)?
Answer: the majority of strains exhibited an heterogeneous fluorescence distribution (profile B)
